Reference: PubChem BioAssay (NCI)
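Results reflect a 48-hour exposure of cells in 96-well plates to compound at five concentrations. The concentration for 50% growth inhibition is given as GI50. Definition used: TGI = concentration required for complete inhibition of growth.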 Where a SMILES comes first, the peptide text is derived from it. [ ]: non-standard residue; d: D form. The star is where a group is joined. ξ: configuration not given here. ξD = NC(CC(=O)O)C(=O)O; Boc = CC(C)(C)OC(=O)*; Aib = CC(C)(N)C(=O)O; OtBu = CC(C)(C)O*

Experiments:
Assay in all cases: DTP human tumour cell line panel, 48 h; in the data active = GI50 below about 0.43 µM; inactive = the rest
[1] = test system: SF-268 CNS
[2] = test system: HS 578T breast
[3] = test system: KM12 colon
[4] = test system: MDA-MB-435
[5] = test system: M14 melanoma
[6] = test system: U251 CNS
[7] = test system: 786-0 renal
[8] = test system: CCRF-CEM leukemia
[9] = test system: IGROV1 ovarian
[10] = test system: SF-539 CNS
[11] = test system: NCI/ADR-RES ovarian
[12] = test system: UACC-257 melanoma
[13] = test system: HOP-92 NSCLC
[14] = test system: OVCAR-8 ovarian
[15] = test system: SNB-75 CNS
[16] = test system: T-47D breast
[17] = test system: SW-620 colon
[18] = test system: HT29 colon
[19] = test system: MCF7 breast
[20] = test system: CAKI-1 renal
[21] = test system: EKVX NSCLC
[22] = test system: UO-31 renal
[23] = test system: BT-549 breast
[24] = test system: COLO 205 colon
[25] = test system: SK-MEL-28 melanoma
[26] = test system: OVCAR-4 ovarian
[27] = test system: MOLT-4 leukemia
[28] = test system: A498 renal
[29] = test system: NCI-H460 lung
[30] = test system: MDA-MB-231 breast
[31] = test system: ACHN renal
[32] = test system: DU-145 prostate
[33] = test system: UACC-62 melanoma
[34] = test system: K-562 leukemia
[35] = test system: SF-295 CNS
[36] = test system: OVCAR-3 ovarian
[37] = test system: SK-MEL-2 melanoma
[38] = test system: SK-MEL-5 melanoma
[39] = test system: NCI-H23 lung
[40] = test system: SNB-19 CNS
[41] = test system: MALME-3M melanoma
[42] = test system: A549 NSCLC
[43] = test system: LOX IMVI melanoma
[44] = test system: OVCAR-5 ovarian
[45] = test system: NCI-H226 lung
[46] = test system: TK-10 renal
[47] = test system: HCT-15 colon
[48] = test system: PC-3 prostate
[49] = test system: HOP-62 NSCLC
[50] = test system: SK-OV-3 ovarian
[51] = test system: RXF 393 renal
[52] = test system: NCI-H522 lung
[53] = test system: HCT-116 colon
[54] = test system: RPMI-8226 leukemia
[55] = test system: HCC-2998 colon
[56] = test system: SN12C renal
[57] = test system: HL-60(TB) leukemia

COC(=O)C(C)(C)NC(=O)C(C)(C)NC(=O)C(CC(=O)OC(C)(C)C)NC(=O)OC(C)(C)C (stereo unspecified) (Boc-[ξD](OtBu)-[Aib]-[Aib]-OMe)
> 100 µM: TGI [1] | TGI [2] | TGI [3] | TGI [4] | TGI [5] | TGI [6] | TGI [7] | TGI [8] | TGI [9] | TGI [10] | TGI [11] | TGI [12] | TGI [13] | TGI [14] | TGI [15] | TGI [16] | TGI [17] | TGI [18] | TGI [19] | TGI [20] | TGI [21] | TGI [22] | TGI [23] | TGI [24] | TGI [25] | TGI [26] | TGI [27] | TGI [28] | TGI [29] | TGI [30] | TGI [31] | TGI [32] | TGI [33] | TGI [34] | TGI [35] | TGI [36] | TGI [37] | TGI [38] | TGI [39] | TGI [40] | TGI [41] | TGI [42] | TGI [43] | TGI [44] | TGI [45] | TGI [46] | TGI [47] | TGI [48] | TGI [49] | TGI [50] | TGI [51] | TGI [52] | TGI [53] | TGI [54]

COc1ccc(OC)c(/C=C/C(=O)N/N=C/c2ccccc2)c1
35.1 µM: TGI [24]
6.66 µM: TGI [20]
26.6 µM: TGI [51]
10.2 µM: TGI [53]
37.3 µM: TGI [15]
39.9 µM: TGI [56]
72.5 µM: TGI [7]
90.4 µM: TGI [23]
94.6 µM: TGI [14]
6.23 µM: TGI [17]
41.7 µM: TGI [52]
33.6 µM: TGI [12]
13.7 µM: TGI [57]
active: GI50 [4] 0.283 µM
11.1 µM: TGI [35]
9.96 µM: TGI [54]
59.5 µM: TGI [21]
87 µM: TGI [39]
5.62 µM: TGI [29]
1.98 µM: TGI [4]
13.3 µM: TGI [13]
inactive: GI50 [55] 2.35 µM | GI50 [1] 7.56 µM | GI50 [2] 9.07 µM | GI50 [3] 0.834 µM | GI50 [5] 2.16 µM | GI50 [6] 3.68 µM | GI50 [7] 7 µM | GI50 [8] 3.97 µM | GI50 [9] 1.51 µM | GI50 [10] 4.42 µM | GI50 [11] 1.46 µM | GI50 [12] 5.76 µM | GI50 [13] 1.56 µM | GI50 [14] 5.44 µM | GI50 [15] 4.39 µM | GI50 [16] 4.86 µM | GI50 [17] 1.5 µM | GI50 [18] 2.1 µM | GI50 [19] 3.79 µM | GI50 [20] 0.443 µM | GI50 [21] 1.59 µM | GI50 [22] 5.9 µM | GI50 [23] 4.05 µM | GI50 [24] 4.8 µM | GI50 [25] 8.89 µM | GI50 [26] 14.3 µM | GI50 [27] 4.45 µM | GI50 [28] 12 µM | GI50 [29] 2.07 µM | GI50 [30] 7.24 µM | GI50 [31] 9.66 µM | GI50 [33] 3.55 µM | GI50 [56] 4.17 µM | GI50 [34] 0.488 µM | GI50 [35] 1 µM | GI50 [36] 3.15 µM | GI50 [37] 2.98 µM | GI50 [38] 2.95 µM | GI50 [39] 5.4 µM | GI50 [40] 4.12 µM | GI50 [41] 2.12 µM | GI50 [42] 4.29 µM | GI50 [43] 4.12 µM | GI50 [57] 2.03 µM | GI50 [44] 18 µM | GI50 [45] 30.8 µM | GI50 [46] 16.6 µM | GI50 [47] 3.62 µM | GI50 [48] 5.86 µM | GI50 [49] 4.95 µM | GI50 [50] 12 µM | GI50 [51] 3.9 µM | GI50 [52] 1.57 µM | GI50 [53] 2.64 µM | GI50 [54] 2.99 µM
75.8 µM: TGI [33]
9.32 µM: TGI [37]
52.1 µM: TGI [48]
14.6 µM: TGI [38]
4.29 µM: TGI [11]
> 100 µM: TGI [1] | TGI [2] | TGI [6] | TGI [8] | TGI [9] | TGI [16] | TGI [18] | TGI [19] | TGI [25] | TGI [26] | TGI [27] | TGI [28] | TGI [30] | TGI [31] | TGI [34] | TGI [36] | TGI [40] | TGI [41] | TGI [42] | TGI [43] | TGI [44] | TGI [45] | TGI [46] | TGI [47] | TGI [49] | TGI [50]
25.1 µM: TGI [10]
3.75 µM: TGI [3]
85.5 µM: TGI [22]
6.77 µM: TGI [5]
21 µM: TGI [55]
